In patent US6737383B1, “Herbicidal oxadiazolidines” (priority 1999, dated 2004):

How the values were obtained:
[1] = tested on: bedstraw; experiment: Test B pre/postemergence bedstraw; format: in vivo, Galium aparine
Method in brief: (§1)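 Herbicidal effect was estimated by eye on a ten-point control scale after plants spent twelve to sixteen days in a greenhouse following soil or foliar treatment. Foliar sprays targeted plants at one to four leaves; all doses were formulated in a non-phytotoxic solvent with surfactant.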

[2] = tested on: blackgrass; experiment: Test B pre/postemergence blackgrass; format: in vivo, Alopecurus myosuroides
Method in brief: as §1

[3] = tested on: surinam grass; experiment: Test B pre/postemergence surinam grass; format: in vivo, Brachiaria decumbens
Method in brief: as §1

[4] = tested on: cocklebur; experiment: Test B pre/postemergence cocklebur; format: in vivo, Xanthium strumarium
Method in brief: as §1

[5] = tested on: corn; experiment: Test B pre/postemergence corn; format: in vivo, Zea mays
Method in brief: as §1

[6] = tested on: crabgrass; experiment: Test B pre/postemergence crabgrass; format: in vivo, Digitaria sanguinalis
Method in brief: as §1

[7] = tested on: giant foxtail; experiment: Test B pre/postemergence giant foxtail; format: in vivo, Setaria faberii
Method in brief: as §1

[8] = tested on: morningglory; experiment: Test B pre/postemergence morningglory; format: in vivo, Ipomoea hederacea
Method in brief: as §1

[9] = tested on: pigweed; experiment: Test B pre/postemergence pigweed; format: in vivo, Amaranthus retroflexus
Method in brief: as §1

[10] = tested on: rape; experiment: Test B pre/postemergence rape; format: in vivo, Brassica napus
Method in brief: as §1

[11] = tested on: soybean; experiment: Test B pre/postemergence soybean; format: in vivo, Glycine max
Method in brief: as §1

[12] = tested on: sugar beet; experiment: Test B pre/postemergence sugar beet; format: in vivo, Beta vulgaris
Method in brief: as §1

[13] = tested on: velvetleaf; experiment: Test B pre/postemergence velvetleaf; format: in vivo, Abutilon theophrasti
Method in brief: as §1

[14] = tested on: wheat; experiment: Test B pre/postemergence wheat; format: in vivo, Triticum aestivum
Method in brief: as §1

[15] = tested on: wild oat; experiment: Test B pre/postemergence wild oat; format: in vivo, Avena fatua
Method in brief: as §1

[16] = tested on: purple nutsedge; experiment: Test B pre/postemergence purple nutsedge; format: in vivo, Cyperus rotundus
Method in brief: as §1

[17] = tested on: rice; experiment: Test B flood test rice; format: in vivo, Oryza sativa
Method in brief: (§2)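 Each value is a visual injury score relative to controls, with 10 meaning complete control and 0 no effect. Evaluation took place twelve to sixteen days after the 2-leaf-stage plants were treated and kept in the greenhouse.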

[18] = tested on: smallflower flatsedge; experiment: Test B flood test smallflower flatsedge; format: in vivo, Cyperus difformis
Method in brief: as §2

[19] = tested on: duck salad; experiment: Test B flood test duck salad; format: in vivo, Heteranthera limosa
Method in brief: as §2

[20] = tested on: bamyardgrass; experiment: Test B flood test barnyardgrass; format: in vivo, Echinochloa crus-galli
Method in brief: as §2

[21] = Postemergence, Rate 62 g/ha, scale of 0 to 10, 0 is no effect, 10 is complete control
[22] = Postemergence, Rate 125 g/ha, scale of 0 to 10 where 0 is no effect and 10 is complete control
[23] = Postemergence, Rate 250 g/ha, scale of 0 to 10, 0 is no effect, 10 is complete control
[24] = Postemergence, Rate 500 g/ha, scale of 0 to 10 where 0 is no effect and 10 is complete control
[25] = Preemergence, Rate 62 g/ha, scale 0 to 10 (0 no effect, 10 complete control)
[26] = Preemergence, Rate 125 g/ha, scale of 0 to 10 where 0 is no effect and 10 is complete control
[27] = Preemergence, Rate 500 g/ha, scale of 0 to 10 where 0 is no effect and 10 is complete control
[28] = Rate 62 g/ha, flood test species, Pre-emergence, visual evaluation after twelve to sixteen days
[29] = Rate 125 g/ha, under heading Pre-emergence, flood test species, visual evaluation after twelve to sixteen days
[30] = Rate 250 g/ha, Pre-emergence (flood test species), scale 0 to 10, 0 is no effect, 10 is complete control
[31] = Rate 500 g/ha, Pre-emergence section of Table B, 0 to 10 scale (0 no effect, 10 complete control)

CC(C)N(C(=O)n1oc(=O)n(CC(=O)N(C)C)c1=O)c1ccccc1 [Compound 588]
Bedstraw plant response rating [1, 21]: 0 | Bedstraw plant response rating (0 to 10 scale) ([1]; Preemergence, Rate 250 g/ha): 0 | Blackgrass plant response rating [2, 21]: 0 | Plant response rating, Blackgrass [2, 22]: 0 | Blackgrass plant response rating [2, 23]: 6 | Plant response rating, Blackgrass [2, 24]: 8 | Blackgrass plant response rating [2, 25]: 0 | Blackgrass plant response rating [2, 26]: 3 | Blackgrass plant response rating (0 to 10 scale) ([2]; Preemergence, Rate 250 g/ha): 5 | Blackgrass plant response rating [2, 27]: 8 | B. signalgrass plant response rating [3, 21]: 0 | Plant response rating, B. signalgrass [3, 22]: 0 | B. signalgrass plant response rating [3, 23]: 4 | Plant response rating, B. signalgrass [3, 24]: 8 | B. signalgrass plant response rating [3, 25]: 0 | B. signalgrass plant response rating [3, 26]: 1 | B. signalgrass plant response rating (0 to 10 scale, 0 is no effect, 10 is complete control) ([3]; Preemergence, Rate 250 g/ha): 5 | B. signalgrass plant response rating [3, 27]: 8 | Cocklebur plant response rating [4, 21]: 0 | Plant response rating, Cocklebur [4, 22]: 0 | Cocklebur plant response rating [4, 23]: 0 | Plant response rating, Cocklebur [4, 24]: 0 | Cocklebur plant response rating [4, 25]: 0 | Cocklebur plant response rating [4, 26]: 0 | Cocklebur plant response rating (0 to 10 scale) ([4]; Preemergence, Rate 250 g/ha): 0 | Cocklebur plant response rating [4, 27]: 0 | Corn plant response rating [5, 21]: 0 | Plant response rating, Corn [5, 22]: 0 | Corn plant response rating [5, 23]: 0 | Plant response rating, Corn [5, 24]: 0 | Corn plant response rating [5, 25]: 0 | Corn plant response rating [5, 26]: 0 | Corn plant response rating (0 to 10 scale) ([5]; Preemergence, Rate 250 g/ha): 0 | Corn plant response rating [5, 27]: 5 | Crabgrass plant response rating [6, 21]: 0 | Plant response rating, Crabgrass [6, 22]: 2 | Crabgrass plant response rating [6, 23]: 6 | Crabgrass plant response rating [6, 25]: 3 | Crabgrass plant response rating [6, 26]: 6 | Crabgrass plant response rating [6, 27]: 9 | Giant foxtail plant response rating [7, 21]: 0 | Plant response rating, Giant foxtail [7, 22]: 4 | Giant foxtail plant response rating [7, 23]: 8 | Plant response rating, Giant foxtail [7, 24]: 8 | Giant foxtail plant response rating [7, 25]: 7 | Giant foxtail plant response rating [7, 26]: 8 | Giant foxtail plant response rating [7, 27]: 10 | Morningglory plant response rating [8, 21]: 7 | Plant response rating, Morningglory [8, 22]: 7 | Morningglory plant response rating [8, 23]: 10 | Plant response rating, Morningglory [8, 24]: 10 | Morningglory plant response rating [8, 25]: 0 | Morningglory plant response rating [8, 26]: 0 | Morningglory plant response rating [8, 27]: 0 | Plant response rating, Redroot pigweed [9, 22]: 0 | Redroot pigweed plant response rating [9, 23]: 0 | Plant response rating, Redroot pigweed [9, 24]: 0 | Redroot pigweed plant response rating [9, 25]: 0 | Redroot pigweed plant response rating [9, 26]: 1 | Redroot pigweed plant response rating [9, 27]: 9 | Rape plant response rating [10, 21]: 0 | Plant response rating, Rape [10, 22]: 0 | Rape plant response rating [10, 23]: 0 | Plant response rating, Rape [10, 24]: 0 | Rape plant response rating [10, 25]: 0 | Rape plant response rating [10, 26]: 0 | Rape plant response rating [10, 27]: 0 | Plant response rating, Soybean [11, 22]: 4 | Soybean plant response rating [11, 23]: 4 | Plant response rating, Soybean [11, 24]: 7 | Soybean plant response rating [11, 25]: 0 | Soybean plant response rating [11, 26]: 0 | Soybean plant response rating [11, 27]: 5 | Plant response rating, Sugarbeets [12, 22]: 0 | Sugarbeets plant response rating [12, 23]: 0 | Plant response rating, Sugarbeets [12, 24]: 0 | Sugarbeets plant response rating [12, 25]: 0 | Sugarbeets plant response rating [12, 26]: 0 | Sugarbeets plant response rating [12, 27]: 6 | Plant response rating, Velvetleaf [13, 22]: 0 | Velvetleaf plant response rating [13, 23]: 0 | Plant response rating, Velvetleaf [13, 24]: 7 | Velvetleaf plant response rating [13, 25]: 0 | Velvetleaf plant response rating [13, 26]: 0 | Velvetleaf plant response rating [13, 27]: 5 | Plant response rating, Wheat [14, 22]: 0 | Wheat plant response rating [14, 23]: 0 | Plant response rating, Wheat [14, 24]: 3 | Wheat plant response rating [14, 25]: 0 | Wheat plant response rating [14, 26]: 2 | Wheat plant response rating [14, 27]: 8 | Plant response rating, Wild oats [15, 22]: 0 | Wild oats plant response rating [15, 23]: 0 | Plant response rating, Wild oats [15, 24]: 0 | Wild oats plant response rating [15, 25]: 0 | Wild oats plant response rating [15, 26]: 0 | Wild oats plant response rating [15, 27]: 7 | Nutsedge plant response rating [16, 21]: 0 | Plant response rating, Nutsedge [16, 22]: 0 | Plant response rating, Nutsedge [16, 24]: 0 | Nutsedge plant response rating [16, 25]: 0 | Nutsedge plant response rating [16, 26]: 0 | Nutsedge plant response rating [16, 27]: 0 | Plant response rating, Rice (0 to 10 scale, 0 is no effect, 10 is complete control) [17, 28]: 0 | Rice plant response rating (0 to 10 scale, 0 is no effect, 10 is complete control) [17, 29]: 0 | Rice plant response rating [17, 30]: 0 | Rice plant response rating [17, 31]: 0 | Plant response rating, S. Flatsedge (0 to 10 scale, 0 is no effect, 10 is complete control) [18, 28]: 0 | S. Flatsedge plant response rating (0 to 10 scale, 0 is no effect, 10 is complete control) [18, 29]: 0 | S. Flatsedge plant response rating [18, 30]: 0 | S. Flatsedge plant response rating [18, 31]: 0 | Plant response rating, Ducksalad (0 to 10 scale, 0 is no effect, 10 is complete control) [19, 28]: 0 | Ducksalad plant response rating (0 to 10 scale, 0 is no effect, 10 is complete control) [19, 29]: 0 | Ducksalad plant response rating [19, 30]: 0 | Ducksalad plant response rating [19, 31]: 0 | Plant response rating, Barnyardgrass (0 to 10 scale, 0 is no effect, 10 is complete control) [20, 28]: 0 | Barnyardgrass plant response rating (0 to 10 scale, 0 is no effect, 10 is complete control) [20, 29]: 0 | Barnyardgrass plant response rating [20, 30]: 0 | Barnyardgrass plant response rating [20, 31]: 0
